Experiments:
[1] = test system: mouse elevated plus maze; test: Anxiolytic-like action, mouse elevated plus maze; type: in vivo; details: Example 13 at 10 mg/kg or more oral; diazepam 3 mg/kg oral
Experimental: In Parkinson's disease, psychiatric symptom (e.g. depression, anxiety) is known as one of its non-motor symptoms. The anxiolytic-like action of the present invention was evaluated with mouse elevated plus maze. The present test is broadly used as a method for evaluating the anxiolytic-like action of agents.
In the present test, male Crl: CD1 (ICR) mice (CHARLES RIVER LABORATORIES JAPAN, INC.) were used. One hour before the test was started, the solvent, the compound of Example 13 (3 mg/kg, 10 mg/kg, 30 mg/kg, or 100 mg/kg), or diazepam (3 mg/kg) which is a positive control was orally administered to the mouse. The mouse was put into a center platform in which the illuminance was adjusted to 80-100 Lux level. The head of the mouse was set toward the closed arm, and then the test was started. The mouse was allowed to explore freely for 5 minutes. When ⅓ of the mouse's body entered the arm, the behavior was counted as arm entry. And, the time spent in the open arm was also measured with a stopwatch. The ratio of the count of the open arm entry per the count of the all arm entry, and the ratio of the time spent in the open arm per the total exploration time (5 minutes) were calculated. […] Thus, the ratio of the count of the open arm entry per the count of the all arm entry, and the ratio of the time spent in the open arm per the total exploration time tend to be small values. When these ratios in the drug administration group are higher than those of the solvent administration group, it can be judged that the drug has anxiolytic-like action.

[2] = biological target: Rat striatum MAOB (Rattus norvegicus (Rat), UniProt P19643); test: Activity for inhibiting monoamine oxidase B (MAOB); type: biochemical; details: [14C] β-PEA substrate; read-out: Rat striatum MAOB IC50
Experimental: MAOB is an enzyme involved in oxidative de-amino acid reaction of an endogenous monoamine neurotransmitter such as dopamine. […] The effect of the present compounds for inhibiting MAOB in rat striatum and simian striatum was tested.
Mitochondria⋅synaptosome fraction containing MAOB was prepared according to the following procedure. To striata of male Slc: Wistar rat (Japan SLC, Inc.) or male cynomolgus monkey (HAMRI CO., LTD.) was added 0.32 mol/L aqueous sucrose by 10 mL per 1 gram as wet weight of the tissue, and the mixture was homogenized. The homogenate was centrifuged at 4° C. at 1,000 g for 10 minutes, and the obtained supernatant was centrifuged again at 4° C. at 17,200 g for 20 minutes. To the obtained precipitate was added a prepared buffer solution (10 mmol/L Tris-HCl buffer solution (pH 7.4), 0.25 mol/L aqueous sucrose, 0.5 mmol/L EDTA-2K) by 10 mL per 1 gram as wet weight of the original tissue, and the mixture was centrifuged again at 4° C. at 17,200 g for 20 minutes. To the obtained precipitate was added the prepared buffer solution by 40 mL per 1 gram as wet weight of the original tissue. The mixture was suspended to be used as an enzyme homogenate solution.
As a substance to be degraded by MAOB, ^14C-labeled β-phenylethylamine ([^14C] β-PEA) was used. [^14C] β-PEA and the present compound solution diluted to each concentration were incubated with the enzyme homogenate solution at 37° C. for a given period, and then the reaction was stopped by adding 3 mol/L cold HCl thereto. The reaction product was extracted with a mixture of water-saturated toluene and ethyl acetate (1:1). The supernatant organic layer was separated, a liquid scintillation cocktail (ACSII, GE Healthcare) was added to the separated organic layer, and the radioactivity was measured with a liquid scintillation counter (TRI-CARB 3100TR, Packard). The IC50 value of each compound was determined based on two parameter logistic model with the inhibitory data of each concentration, said data were obtained from plural trials.

[3] = biological target: human CA-II (Homo sapiens (Human), UniProt P00918); test: Activity for inhibiting carbonic anhydrase (CA); type: biochemical; details: 4-nitrophenyl acetate substrate
Experimental: CA is a zinc metalloenzyme family which catalyzes reversible hydration between carbon dioxide, and bicarbonate and proton.
As a substance for decomposition by CA-II, 4-nitrophenyl acetate was used herein. 4-Nitrophenyl acetate is […] with CA-II to produce 4-nitrophenol. […] To the diluted solution were added […] (final concentration: 5 mmol/L) and the present compound of each concentration, and the mixture was incubated at 37° C. under shading for 30 minutes. […] The IC50 of the compound was obtained through the two-parameter logistic model with the inhibitory rate data in each concentration which was obtained from plural trials.

[4] = test system: harmaline-induced essential tremor model; test: Anti-tremor effect in harmaline-induced essential tremor model; type: in vivo, mouse; details: Examples 1, 13: 25 or 50 mg/kg, Example 14: 3.125-25 mg/kg oral; β-propranolol 10 mg/kg i.p.
Experimental: As an animal model of essential tremor, an animal administrated with harmaline is broadly used in its evaluation test. […] The effect of the present compounds for harmaline-acute-administration-induced tremor was studied. To male Crl: CD1 mice (6-7 weeks old) (CHARLES RIVER LABORATORIES JAPAN, INC.), harmaline (30 mg/kg) was intraperitoneally administered to induce tremor. The present compound (Example 1 (25 mg/kg or 50 mg/kg), Example 13 (25 mg/kg or 50 mg/kg), or Example 14 (3.125 mg/kg, 6.25 mg/kg, 12.5 mg/kg, or 25 mg/kg)) was orally administered to the mouse one hour before the administration of harmaline. And, saline or β-propranolol (10 mg/kg) which is a positive control compound was intraperitoneally administered to the mouse 20 minutes before the administration of harmaline. 35 minutes before the administration of harmaline, the mouse was put into a measurement cage (an acrylic cylinder set in a horizontal direction, φ 65 mm, length 145 mm), one cage to one mouse, said measurement cage was in a soundproof box of a startle response instrument (O'hara & Co., Ltd., Tokyo). The trembling that the mouse gave were recorded over time as tremor data. The animal was put into cage, and the data were recorded for 20 minutes just before (PRE) and just after (POST) the administration of harmaline. The time-series signal data were analyzed about frequency with an analysis software, VitalTracer and BIMUTAS II-A (both, Kissei Comtech Co., Ltd., Matsumoto-shi). At 12-15 Hz or 12-18 Hz as a frequency which increases with tremor, the spectrum amounts were extracted, and the tremor intensity T of each subject was calculated according to the following formula. T=POST/PRE

[5] = biological target: human Cav3.2 (Homo sapiens (Human), UniProt O95180); test: T-type calcium channel inhibitory activity, whole-cell patch-clamp with HEK293 cell; type: cell-based
Experimental: (§1) The inhibitory activity of the present compounds for T-type calcium channel was measured by whole-cell patch-clamp method with HEK293 cell (vendor of HEK 293 cell: ATCC, Manassas, Va., USA, builder of expressing cell: ChanTest Corporation., Cleveland, Ohio, USA), in which human Cav3.1, human Cav3.2, or human Cav3.3 is expressed. The culture medium used for HEK293 cell was prepared by adding fetal bovine serum (10%), sodium penicillin G (100 U/mL), streptomycin sulfate (100 μg/mL), and G418 (500 μg/mL) to a mixture medium of Dulbecco's modified Eagle's medium/Ham's F-12 medium. The whole-cell current was evaluated with IonWorks Barracuda system and Population Patch Clamp (both are provided by Molecular Device Corporation, Union City, Calif., USA). The extracellular recording solution used during the recording was Hanks' balanced salt solution. The internal recording solution used herein was 50 mmol/L CsCl, 90 mmol/L CsF, 5 mmol/L MgCl2, 1 mmol/L glycol ether diamine tetraacetic acid (EGTA), and 10 mmol/L 4-(2-hydroxyethyl)piperazine-1-ethanesulfonic acid (HEPES (pH 7.2). The holding voltage was held at −90 mV, then changed to −65 mV. 60 seconds later, −20 mV pulse was added thereto for 200 millisecond to activate the channel on plasma membrane and generate calcium current. The calcium current was recorded with an amplifier of IonWorks Barracuda system, and analyzed with a program of the system (Version 2.0.2). The record of the calcium current was obtained twice, before and after the addition of the compound. In the measurement after adding the compound, the cells were exposed to the recording solution containing the compound for more than 5 minutes and then the current was measured. In the analyses, the ratio of current readout after the compound addition per current readout before the compound addition was calculated, the calculated value was subtracted from one, and the obtained value was converted to percentage. […] The value obtained from each compound was canonicalized based on the two ends of values to obtain each inhibitory rate. The positive control compound used herein was TTA-A2 which is known as T-type calcium channel inhibitor. IC50 value was calculated with Hill equation.
(§2) Each inhibitory rate (%) against T-type calcium channel at the evaluation concentration of the present compound (600 μmol/L) is shown in Table 12, in which the parenthesized values are IC50 values (μmol/L)) calculated from the dose-reactive test.

[6] = biological target: human Cav3.3 (Homo sapiens (Human), UniProt Q9P0X4); test: as above; type: cell-based
Experimental: as §1, §2

[7] = biological target: human Cav3.1 (Homo sapiens (Human), UniProt O43497); test: as above; type: cell-based
Experimental: as §1, §2

[8] = test system: unilateral lesion model of nigrostriatal dopamine neuron induced with 6-OHDA; test: Extending duration of levodopa-induced rotational behavior in 6-OHDA unilateral lesion model; type: in vivo, rat; details: Examples 10 or 30 mg/kg oral; rasagiline 0.6 mg/kg; with levodopa 5 mg/kg i.p.
[9] = test system: levodopa-induced dyskinesia in 6-OHDA unilateral lesion model; test: Effect for inhibiting levodopa-induced dyskinesia; type: in vivo, rat; details: Examples 30 or 100 mg/kg, rasagiline 0.2 or 0.6 mg/kg, daily for two weeks
Excerpt: A unilateral lesion model of nigrostriatal dopamine neuron induced with 6-hydroxydopamine (6-OHDA) is broadly used for evaluating the drug efficacy for treating Parkinson's disease, as mentioned in Test 2. In addition, it is known that dyskinesia is developed when the present model receives repetitive administration of levodopa, which is similar to the phenomenon that patients of Parkinson's disease who have received long-term administration of levodopa develop dyskinesia. With the present model, the effect of the present compound on the dyskinesia induced by repetitive administration of levodopa was evaluated. As shown in Test 2, a unilateral lesion model of nigrostriatal dopamine neuron was prepared. One day before starting the repetitive administration of levodopa, levodopa methyl ester hydrochloride (5.86 mg/kg) containing benserazide hydrochloride ([…]) (whose ratio was 4:1 in terms of free form) was intraperitoneally administered to the model, and the rotational behavior of the model was observed from 20 minutes to 140 minutes after the administration. The models were classified considering three factors of the total rotation number (20-140 minutes after the administration), the later term of the rotation (120-140 minutes after the administration), and the rotational duration, so that the dispersion of each group could be equal. Two days after the classification, the repetitive administration of levodopa methyl ester hydrochloride (6 mg/kg) and benserazide hydrochloride (12 mg/kg) once a day for two weeks was started. […] The evaluation of dyskinesia was done after one week and two weeks of the repetitive administration. […]

[10] = test system: reserpine-induced Parkinson's disease model mouse; test: Potentiating effect of levodopa-induced hyperactivity in reserpine-induced Parkinson's disease model mouse; type: in vivo; details: Examples 12.5 or 25 mg/kg oral; rasagiline 3 or 10 mg/kg; with levodopa 200 mg/kg i.p.
Experimental: Dopamine-depleted mice due to reserpine treatment are model mice of akinesia symptoms in Parkinson's disease, said symptoms are relieved with levodopa (L-DOPA). The effect of the present compounds for potentiating the levodopa's effect was tested.
In the present test, male Crl: CD1 (ICR) mice (CHARLES RIVER LABORATORIES JAPAN, INC.) were used. 20-24 hours before starting the movement measurement, reserpine (3 mg/kg) was intraperitoneally administered to the mouse. One hour before starting the movement measurement, the present compound (12-.5 mg/kg or 25 mg/kg of. Examples 1, 2, 3, 4, and 5) was orally administered to the mouse. Shortly before starting the movement measurement, levodopa (200 mg/kg) with benserazide whose amount was ¼ of levodopa in free form was intraperitoneally administered to the mouse. The movement measurement was carried out for 90 minutes, and each total movement was compared.

human Cav3.1, sequence (O43497 whole entry): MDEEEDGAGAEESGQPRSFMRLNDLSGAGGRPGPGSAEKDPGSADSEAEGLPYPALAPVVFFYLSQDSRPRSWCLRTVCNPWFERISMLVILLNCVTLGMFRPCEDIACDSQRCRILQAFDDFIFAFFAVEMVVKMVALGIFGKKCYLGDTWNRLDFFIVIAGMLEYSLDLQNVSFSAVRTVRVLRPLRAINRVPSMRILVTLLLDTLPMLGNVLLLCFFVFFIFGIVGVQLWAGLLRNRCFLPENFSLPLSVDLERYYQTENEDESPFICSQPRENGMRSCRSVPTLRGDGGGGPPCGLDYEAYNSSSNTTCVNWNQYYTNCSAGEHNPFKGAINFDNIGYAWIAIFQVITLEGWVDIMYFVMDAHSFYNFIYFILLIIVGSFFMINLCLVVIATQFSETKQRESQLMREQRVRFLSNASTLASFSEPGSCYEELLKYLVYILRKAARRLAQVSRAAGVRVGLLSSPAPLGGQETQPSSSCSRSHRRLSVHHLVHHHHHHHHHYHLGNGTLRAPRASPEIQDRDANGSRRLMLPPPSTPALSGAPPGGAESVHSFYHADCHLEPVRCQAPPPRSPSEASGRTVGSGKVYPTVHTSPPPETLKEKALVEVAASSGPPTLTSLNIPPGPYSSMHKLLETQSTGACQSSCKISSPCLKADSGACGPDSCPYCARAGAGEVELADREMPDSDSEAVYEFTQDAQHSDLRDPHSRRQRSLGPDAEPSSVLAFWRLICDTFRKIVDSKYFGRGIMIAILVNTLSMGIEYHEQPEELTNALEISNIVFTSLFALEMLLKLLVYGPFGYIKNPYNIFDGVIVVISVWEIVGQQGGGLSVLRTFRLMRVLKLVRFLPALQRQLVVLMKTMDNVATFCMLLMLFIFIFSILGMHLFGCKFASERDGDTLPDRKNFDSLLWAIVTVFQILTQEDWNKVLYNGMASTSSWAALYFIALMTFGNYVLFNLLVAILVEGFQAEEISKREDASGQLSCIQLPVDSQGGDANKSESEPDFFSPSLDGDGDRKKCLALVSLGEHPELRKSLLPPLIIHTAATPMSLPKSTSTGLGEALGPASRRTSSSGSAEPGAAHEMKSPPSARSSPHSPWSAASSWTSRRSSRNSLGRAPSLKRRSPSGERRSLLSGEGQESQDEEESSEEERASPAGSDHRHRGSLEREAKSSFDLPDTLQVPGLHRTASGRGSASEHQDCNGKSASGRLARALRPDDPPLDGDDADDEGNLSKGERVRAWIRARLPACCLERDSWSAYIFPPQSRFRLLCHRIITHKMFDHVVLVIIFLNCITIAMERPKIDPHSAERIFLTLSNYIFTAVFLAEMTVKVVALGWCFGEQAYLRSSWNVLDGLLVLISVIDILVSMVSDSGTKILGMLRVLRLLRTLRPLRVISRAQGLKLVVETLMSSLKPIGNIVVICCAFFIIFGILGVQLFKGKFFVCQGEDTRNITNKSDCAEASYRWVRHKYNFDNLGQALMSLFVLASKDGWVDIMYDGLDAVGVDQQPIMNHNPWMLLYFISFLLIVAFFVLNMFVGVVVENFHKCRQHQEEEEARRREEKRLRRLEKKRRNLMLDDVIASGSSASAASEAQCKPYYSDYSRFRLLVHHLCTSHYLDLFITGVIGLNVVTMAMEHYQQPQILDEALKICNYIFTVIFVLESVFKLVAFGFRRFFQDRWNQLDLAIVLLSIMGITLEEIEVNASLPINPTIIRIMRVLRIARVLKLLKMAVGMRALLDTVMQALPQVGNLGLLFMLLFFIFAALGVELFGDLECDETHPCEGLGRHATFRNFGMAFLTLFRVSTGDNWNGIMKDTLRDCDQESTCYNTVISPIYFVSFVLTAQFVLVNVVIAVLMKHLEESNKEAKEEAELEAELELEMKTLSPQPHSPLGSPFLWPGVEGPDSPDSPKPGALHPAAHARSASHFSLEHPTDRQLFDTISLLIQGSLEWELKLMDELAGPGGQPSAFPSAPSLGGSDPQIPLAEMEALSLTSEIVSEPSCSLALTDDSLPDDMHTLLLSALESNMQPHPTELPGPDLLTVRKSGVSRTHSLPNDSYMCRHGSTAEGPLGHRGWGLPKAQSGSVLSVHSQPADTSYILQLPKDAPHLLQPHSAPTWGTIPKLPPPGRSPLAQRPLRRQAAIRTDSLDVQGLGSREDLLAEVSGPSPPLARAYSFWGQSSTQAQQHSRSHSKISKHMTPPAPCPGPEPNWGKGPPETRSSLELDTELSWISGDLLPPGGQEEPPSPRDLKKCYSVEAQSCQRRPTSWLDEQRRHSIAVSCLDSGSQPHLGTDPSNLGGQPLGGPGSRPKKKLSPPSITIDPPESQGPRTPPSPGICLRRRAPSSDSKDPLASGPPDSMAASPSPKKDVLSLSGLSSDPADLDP
human Cav3.3, sequence (Q9P0X4 whole entry): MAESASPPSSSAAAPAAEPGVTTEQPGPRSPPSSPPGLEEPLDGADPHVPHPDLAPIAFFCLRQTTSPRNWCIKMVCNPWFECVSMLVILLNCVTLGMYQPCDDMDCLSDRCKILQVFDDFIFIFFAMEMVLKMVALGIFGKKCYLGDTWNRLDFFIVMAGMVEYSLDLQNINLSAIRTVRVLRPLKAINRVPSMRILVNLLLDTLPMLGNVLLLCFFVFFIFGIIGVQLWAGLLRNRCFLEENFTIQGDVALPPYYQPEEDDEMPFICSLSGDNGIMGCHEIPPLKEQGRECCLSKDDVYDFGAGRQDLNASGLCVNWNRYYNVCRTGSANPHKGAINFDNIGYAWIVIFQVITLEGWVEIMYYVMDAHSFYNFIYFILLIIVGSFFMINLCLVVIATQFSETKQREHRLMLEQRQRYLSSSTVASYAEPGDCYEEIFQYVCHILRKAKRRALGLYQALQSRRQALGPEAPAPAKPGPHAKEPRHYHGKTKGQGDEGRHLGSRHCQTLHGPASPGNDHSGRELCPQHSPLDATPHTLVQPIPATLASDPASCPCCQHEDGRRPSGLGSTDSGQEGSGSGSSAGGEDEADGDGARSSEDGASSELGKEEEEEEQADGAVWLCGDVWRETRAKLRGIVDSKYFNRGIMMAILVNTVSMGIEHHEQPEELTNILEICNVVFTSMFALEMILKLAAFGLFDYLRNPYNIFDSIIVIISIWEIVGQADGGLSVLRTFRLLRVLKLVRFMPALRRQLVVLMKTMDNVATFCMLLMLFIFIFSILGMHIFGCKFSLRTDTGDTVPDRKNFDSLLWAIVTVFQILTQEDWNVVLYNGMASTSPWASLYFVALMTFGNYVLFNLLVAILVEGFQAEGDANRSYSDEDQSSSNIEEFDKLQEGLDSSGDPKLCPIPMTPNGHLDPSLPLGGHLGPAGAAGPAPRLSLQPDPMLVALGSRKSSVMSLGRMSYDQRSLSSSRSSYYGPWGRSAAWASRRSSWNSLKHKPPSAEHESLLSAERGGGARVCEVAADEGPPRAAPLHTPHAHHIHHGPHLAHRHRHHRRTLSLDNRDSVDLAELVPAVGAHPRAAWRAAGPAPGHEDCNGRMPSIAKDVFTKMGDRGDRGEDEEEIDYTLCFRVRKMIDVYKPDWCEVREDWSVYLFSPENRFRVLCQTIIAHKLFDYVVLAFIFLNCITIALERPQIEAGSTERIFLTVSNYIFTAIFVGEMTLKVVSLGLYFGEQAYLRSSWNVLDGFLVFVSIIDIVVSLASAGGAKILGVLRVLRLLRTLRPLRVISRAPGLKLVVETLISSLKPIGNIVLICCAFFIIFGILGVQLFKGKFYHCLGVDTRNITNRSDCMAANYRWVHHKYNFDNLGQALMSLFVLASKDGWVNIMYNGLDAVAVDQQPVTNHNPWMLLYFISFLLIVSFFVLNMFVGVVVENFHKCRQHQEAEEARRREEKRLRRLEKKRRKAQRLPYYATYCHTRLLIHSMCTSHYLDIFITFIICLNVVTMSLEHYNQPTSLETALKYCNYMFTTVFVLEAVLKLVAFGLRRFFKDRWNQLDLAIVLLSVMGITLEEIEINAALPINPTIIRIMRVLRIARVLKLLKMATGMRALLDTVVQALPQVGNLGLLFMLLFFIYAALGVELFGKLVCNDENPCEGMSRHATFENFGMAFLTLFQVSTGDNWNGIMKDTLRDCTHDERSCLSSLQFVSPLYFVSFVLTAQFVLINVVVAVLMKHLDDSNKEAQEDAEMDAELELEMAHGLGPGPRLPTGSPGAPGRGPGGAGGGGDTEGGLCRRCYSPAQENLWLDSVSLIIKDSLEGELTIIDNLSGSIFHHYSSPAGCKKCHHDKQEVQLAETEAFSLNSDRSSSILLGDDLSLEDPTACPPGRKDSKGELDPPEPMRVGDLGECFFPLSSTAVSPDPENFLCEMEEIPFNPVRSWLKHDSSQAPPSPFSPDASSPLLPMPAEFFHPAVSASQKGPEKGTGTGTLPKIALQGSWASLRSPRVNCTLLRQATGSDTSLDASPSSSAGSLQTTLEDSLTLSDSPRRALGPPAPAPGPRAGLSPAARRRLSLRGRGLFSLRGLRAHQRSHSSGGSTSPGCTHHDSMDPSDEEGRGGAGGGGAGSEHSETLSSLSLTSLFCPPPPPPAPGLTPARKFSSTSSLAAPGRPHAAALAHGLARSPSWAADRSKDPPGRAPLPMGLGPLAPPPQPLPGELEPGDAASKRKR
Rat striatum MAOB, sequence (P19643 whole entry): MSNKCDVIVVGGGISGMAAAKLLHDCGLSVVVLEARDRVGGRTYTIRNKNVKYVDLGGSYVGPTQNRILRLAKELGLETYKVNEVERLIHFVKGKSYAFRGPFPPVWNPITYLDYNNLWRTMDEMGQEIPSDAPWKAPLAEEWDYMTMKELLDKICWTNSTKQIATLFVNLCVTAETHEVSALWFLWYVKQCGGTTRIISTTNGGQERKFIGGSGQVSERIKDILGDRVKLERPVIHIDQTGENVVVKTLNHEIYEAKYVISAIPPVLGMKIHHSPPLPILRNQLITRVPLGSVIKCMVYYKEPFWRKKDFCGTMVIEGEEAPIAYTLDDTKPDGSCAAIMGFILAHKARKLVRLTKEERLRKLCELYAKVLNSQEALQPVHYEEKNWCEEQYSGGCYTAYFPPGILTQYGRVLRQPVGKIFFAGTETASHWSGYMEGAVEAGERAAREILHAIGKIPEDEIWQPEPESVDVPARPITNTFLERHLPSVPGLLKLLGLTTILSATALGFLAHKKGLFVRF

## CN1C(=O)CN=C(c2ccccc2)c2cc(Cl)ccc21 [Diazepam, diazepam, reference compound]
[1]
  count of the open arm entry: increase significantly
  time spent in the open arm: increase significantly

## C[C@@H](c1noc2ccccc12)S(N)(=O)=O [Example 14, (1S)-1-(1,2-benzoxazol-3-yl)ethane-1-sulfonamide]
[2]
  IC50: > 600 µM
[3]
  IC50: 3.5 µM
[4]
  harmaline-induced tremor intensity: inhibited harmaline-induced tremor
[5]; HEK293, 600 μmol/L, read-out: Cav3.2 % inhibitory rate
  inhibition at 600 µM: 33.8%
[5]; dose-reactive test, read-out: Cav3.2 IC50 (parenthesized)
  IC50: 839 µM
[6]; HEK293, 600 μmol/L, read-out: Cav3.3 % inhibitory rate
  inhibition at 600 µM: 31.8%
[6]; dose-reactive test, read-out: Cav3.3 IC50 (parenthesized)
  IC50: 888 µM
[7]; HEK293, 600 μmol/L, read-out: Cav3.1 % inhibitory rate
  inhibition at 600 µM: 49.6%
[7]; dose-reactive test, read-out: Cav3.1 IC50 (parenthesized)
  IC50: 549 µM
[8]
  rotational number in the late phase (100-120 minutes): significantly increased the rotational number in the late phase

## C#CCN[C@@H]1CCc2ccccc21 [rasagiline, reference compound]
[9]
  dyskinesia induced by repetitive administration of levodopa (AIMS score): significantly got worse
[10]
  levodopa-induced hyperactivity (total movement, 90 minutes): a tendency to increase the movement, but the increase had no statistically-significant difference
[8]
  rotational number in the late phase (100-120 minutes): significantly increased the rotational number in the late phase

## CC(C)NCC(O)COc1cccc2ccccc12 (stereo not drawn) [β-Propranolol, β-propranolol, reference compound]
[4]
  harmaline-induced tremor intensity: significantly inhibited harmaline-induced tremor
